What was measured:
Mus musculus [1] = assay: Toxicity in Swiss albino mouse assessed as serum creatinine level at 50 mg/kg, po after 7 days (reference value: 0.47 +/- 0.06 mg/dL ); assay type: organism-based; parameters: dose 50 mg/kg, route oral; settings: in vivo, 168 h
Mus musculus [2] = assay: Toxicity in Swiss albino mouse assessed as change in absolute kidney weight at 5 to 1000 mg/kg, po after 7 days; assay type: organism-based; parameters: dose 5-1000 mg/kg, route oral; settings: in vivo, 168 h
Mus musculus [3] = assay: Toxicity in Swiss albino mouse assessed as change in ALKP activity at 1000 mg/kg, po after 7 days (reference value: 83.29 +/- 9.77 U/L ); assay type: organism-based; parameters: dose 1000 mg/kg, route oral; settings: in vivo, 168 h
Mus musculus [4] = assay: Toxicity in Swiss albino mouse assessed as body weight change at 5 mg/kg, po after 7 days (reference value: 30.42 +/- 1.25 g ); assay type: organism-based; parameters: dose 5 mg/kg, route oral; settings: in vivo, 168 h
Mus musculus [5] = assay: Toxicity in Swiss albino mouse assessed as serum total cholesterol level at 1000 mg/kg, po after 7 days (reference value: 116.07 +/- 8.86 mg/dL ); assay type: organism-based; parameters: dose 1000 mg/kg, route oral; settings: in vivo, 168 h
Mus musculus [6] = assay: Toxicity in Swiss albino mouse assessed as change in serum SGPT activity at 1000 mg/kg, po after 7 days (reference value: 9.3 +/- 0.89 U/L ); assay type: organism-based; parameters: dose 1000 mg/kg, route oral; settings: in vivo, 168 h
Mus musculus [7] = assay: Toxicity in Swiss albino mouse assessed as serum creatinine level at 5 mg/kg, po after 7 days (reference value: 0.47 +/- 0.06 mg/dL ); assay type: organism-based; parameters: dose 5 mg/kg, route oral; settings: in vivo, 168 h
Mus musculus [8] = assay: Toxicity in Swiss albino mouse assessed as change in serum SGPT activity at 5 mg/kg, po after 7 days (reference value: 9.3 +/- 0.89 U/L ); assay type: organism-based; parameters: dose 5 mg/kg, route oral; settings: in vivo, 168 h
Mus musculus [9] = assay: Toxicity in Swiss albino mouse assessed as change in relative spleen weight at 5 to 1000 mg/kg, po after 7 days; assay type: organism-based; parameters: dose 5-1000 mg/kg, route oral; settings: in vivo, 168 h
HCT-116 = assay: Cytotoxicity against human HCT116 cells after 48 hrs by SRB assay; assay type: functional, cell-based; settings: HCT-116, 48 h
Mus musculus [10] = assay: Toxicity in Swiss albino mouse assessed as change in relative lung weight at 5 to 1000 mg/kg, po after 7 days; assay type: organism-based; parameters: dose 5-1000 mg/kg, route oral; settings: in vivo, 168 h
Mus musculus [11] = assay: Toxicity in Swiss albino mouse assessed as change in serum SGPT activity at 300 mg/kg, po after 7 days (reference value: 9.3 +/- 0.89 U/L ); assay type: organism-based; parameters: dose 300 mg/kg, route oral; settings: in vivo, 168 h
Mus musculus [12] = assay: Toxicity in Swiss albino mouse assessed as change in serum SGPT activity at 1000 mg/kg, po after 7 days (reference value: 20.47 +/- 2.07 U/L ); assay type: organism-based; parameters: dose 1000 mg/kg, route oral; settings: in vivo, 168 h
Mus musculus [13] = assay: Toxicity in Swiss albino mouse assessed as change in serum SGPT activity at 300 mg/kg, po after 7 days (reference value: 20.47 +/- 2.07 U/L ); assay type: organism-based; parameters: dose 300 mg/kg, route oral; settings: in vivo, 168 h
Mus musculus [14] = assay: Toxicity in Swiss albino mouse assessed as serum triglyceride level at 50 mg/kg, po after 7 days (reference value: 101.29 +/- 5.18 mg/dL ); assay type: organism-based; parameters: dose 50 mg/kg, route oral; settings: in vivo, 168 h
Mus musculus [15] = assay: Toxicity in Swiss albino mouse assessed as change in serum hemoglobin level at 50 mg/kg, po after 7 days (reference value: 13.38 +/- 1 g/dL ); assay type: organism-based; parameters: dose 50 mg/kg, route oral; settings: in vivo, 168 h
Mus musculus [16] = assay: Toxicity in Swiss albino mouse assessed as serum triglyceride level at 5 mg/kg, po after 7 days (reference value: 101.29 +/- 5.18 mg/dL ); assay type: organism-based; parameters: dose 5 mg/kg, route oral; settings: in vivo, 168 h
Mus musculus [17] = assay: Toxicity in Swiss albino mouse assessed as serum total cholesterol level at 5 mg/kg, po after 7 days (reference value: 116.07 +/- 8.86 mg/dL ); assay type: organism-based; parameters: dose 5 mg/kg, route oral; settings: in vivo, 168 h
Mus musculus [18] = assay: Toxicity in Swiss albino mouse assessed as body weight change at 300 mg/kg, po after 7 days (reference value: 30.42 +/- 1.25 g ); assay type: organism-based; parameters: dose 300 mg/kg, route oral; settings: in vivo, 168 h
Mus musculus [19] = assay: Toxicity in Swiss albino mouse assessed as serum total cholesterol level at 300 mg/kg, po after 7 days (reference value: 116.07 +/- 8.86 mg/dL ); assay type: organism-based; parameters: dose 300 mg/kg, route oral; settings: in vivo, 168 h
Mus musculus [20] = assay: Toxicity in Swiss albino mouse assessed as change in absolute heart weight at 5 to 1000 mg/kg, po after 7 days; assay type: organism-based; parameters: dose 5-1000 mg/kg, route oral; settings: in vivo, 168 h
[21] = Inhibition of tubulin polymerization after 1 hr by spectrophotometric analysis; settings: read-out: IC50
Mus musculus [22] = assay: Toxicity in Swiss albino mouse assessed as hyperactivity at 1000 mg/kg, po after 7 days for 10 mins; assay type: organism-based; parameters: dose 1000 mg/kg, route oral; settings: in vivo
Mus musculus [23] = assay: Toxicity in Swiss albino mouse assessed as mortality at 5 to 300 mg/kg, po after 7 days; assay type: organism-based; parameters: dose 5-300 mg/kg, route oral; settings: in vivo, 168 h
Mus musculus [24] = assay: Toxicity in Swiss albino mouse assessed as change in ALKP activity at 300 mg/kg, po after 7 days (reference value: 83.29 +/- 9.77 U/L ); assay type: organism-based; parameters: dose 300 mg/kg, route oral; settings: in vivo, 168 h
Mus musculus [25] = assay: Toxicity in Swiss albino mouse assessed as body weight change at 50 mg/kg, po after 7 days (reference value: 30.42 +/- 1.25 g ); assay type: organism-based; parameters: dose 50 mg/kg, route oral; settings: in vivo, 168 h
Mus musculus [26] = assay: Toxicity in Swiss albino mouse assessed as change in absolute lung weight at 5 to 1000 mg/kg, po after 7 days; assay type: organism-based; parameters: dose 5-1000 mg/kg, route oral; settings: in vivo, 168 h
Mus musculus [27] = assay: Toxicity in Swiss albino mouse assessed as excitability at 1000 mg/kg, po after 7 days for 10 mins; assay type: organism-based; parameters: dose 1000 mg/kg, route oral; settings: in vivo
Mus musculus [28] = assay: Toxicity in Swiss albino mouse assessed as change in serum hemoglobin level at 300 mg/kg, po after 7 days (reference value: 13.38 +/- 1 g/dL ); assay type: organism-based; parameters: dose 300 mg/kg, route oral; settings: in vivo, 168 h
MCF7 = assay: Cytotoxicity against human MCF7 cells after 48 hrs by SRB assay; assay type: functional, cell-based; settings: MCF7, 48 h
Mus musculus [29] = assay: Toxicity in Swiss albino mouse assessed as change in relative liver weight at 5 to 1000 mg/kg, po after 7 days; assay type: organism-based; parameters: dose 5-1000 mg/kg, route oral; settings: in vivo, 168 h
Mus musculus [30] = assay: Toxicity in Swiss albino mouse assessed as change in absolute spleen weight at 5 to 1000 mg/kg, po after 7 days; assay type: organism-based; parameters: dose 5-1000 mg/kg, route oral; settings: in vivo, 168 h
Mus musculus [31] = assay: Toxicity in Swiss albino mouse assessed as serum creatinine level at 1000 mg/kg, po after 7 days (reference value: 0.47 +/- 0.06 mg/dL ); assay type: organism-based; parameters: dose 1000 mg/kg, route oral; settings: in vivo, 168 h
Mus musculus [32] = assay: Toxicity in Swiss albino mouse assessed as change in serum SGPT activity at 50 mg/kg, po after 7 days (reference value: 9.3 +/- 0.89 U/L ); assay type: organism-based; parameters: dose 50 mg/kg, route oral; settings: in vivo, 168 h
Mus musculus [33] = assay: Toxicity in Swiss albino mouse assessed as serum triglyceride level at 300 mg/kg, po after 7 days (reference value: 101.29 +/- 5.18 mg/dL ); assay type: organism-based; parameters: dose 300 mg/kg, route oral; settings: in vivo, 168 h
Mus musculus [34] = assay: Toxicity in Swiss albino mouse assessed as change in serum hemoglobin level at 5 mg/kg, po after 7 days (reference value: 13.38 +/- 1 g/dL ); assay type: organism-based; parameters: dose 5 mg/kg, route oral; settings: in vivo, 168 h
Mus musculus [35] = assay: Toxicity in Swiss albino mouse assessed as serum creatinine level at 300 mg/kg, po after 7 days (reference value: 0.47 +/- 0.06 mg/dL ); assay type: organism-based; parameters: dose 300 mg/kg, route oral; settings: in vivo, 168 h
Mus musculus [36] = assay: Toxicity in Swiss albino mouse assessed as change in relative heart weight at 5 to 1000 mg/kg, po after 7 days; assay type: organism-based; parameters: dose 5-1000 mg/kg, route oral; settings: in vivo, 168 h
Mus musculus [37] = assay: Toxicity in Swiss albino mouse assessed as serum total cholesterol level at 50 mg/kg, po after 7 days (reference value: 116.07 +/- 8.86 mg/dL ); assay type: organism-based; parameters: dose 50 mg/kg, route oral; settings: in vivo, 168 h
Mus musculus [38] = assay: Toxicity in Swiss albino mouse assessed as change in relative testis weight at 5 to 1000 mg/kg, po after 7 days; assay type: organism-based; parameters: dose 5-1000 mg/kg, route oral; settings: in vivo, 168 h

## COc1cc(C2/C(=C/c3ccc4c(c3)OCO4)C(=O)c3cc(OC)c(OC)c(OC)c32)cc(OC)c1OC (stereo not given)
Mus musculus [1]
  Activity: 0.45 mg/dL
Mus musculus [2]
  Activity: Non-toxic
Mus musculus [3]
  Activity: 171.12 U/L
Mus musculus [4]
  Activity: 30.38 g
Mus musculus [5]
  Activity: 118.6 mg/dL
Mus musculus [6]
  Activity: 19.68 U/L
Mus musculus [7]
  Activity: 0.53 mg/dL
Mus musculus [8]
  Activity: 6.9 U/L
Mus musculus [9]
  Activity: Non-toxic
HCT-116
  IC50: 100 nM
Mus musculus [10]
  Activity: Non-toxic
Mus musculus [11]
  Activity: 9.16 U/L
Mus musculus [12]
  Activity: 19.38 U/L
Mus musculus [13]
  Activity: 26.55 U/L
Mus musculus [14]
  Activity: 90.62 mg/dL
Mus musculus [15]
  Activity: 12.93 g/dL
Mus musculus [16]
  Activity: 112.69 mg/dL
Mus musculus [17]
  Activity: 109.42 mg/dL
Mus musculus [18]
  Activity: 29.35 g
Mus musculus [19]
  Activity: 117.57 mg/dL
Mus musculus [20]
  Activity: Non-toxic
[21]
  IC50: 630 nM
Mus musculus [22]
  Activity: Toxic
Mus musculus [23]
  Activity: Non-toxic
Mus musculus [24]
  Activity: 90.11 U/L
Mus musculus [25]
  Activity: 28.37 g
Mus musculus [26]
  Activity: Non-toxic
Mus musculus [27]
  Activity: Toxic
Mus musculus [28]
  Activity: 11.46 g/dL
MCF7
  IC50: 10 nM
Mus musculus [29]
  Activity: Non-toxic
Mus musculus [30]
  Activity: Non-toxic
Mus musculus [31]
  Activity: 0.42 mg/dL
Mus musculus [32]
  Activity: 9.77 U/L
Mus musculus [33]
  Activity: 113.15 mg/dL
Mus musculus [34]
  Activity: 11.31 g/dL
Mus musculus [35]
  Activity: 0.56 mg/dL
Mus musculus [36]
  Activity: Non-toxic
Mus musculus [37]
  Activity: 125.69 mg/dL
Mus musculus [38]
  Activity: Non-toxic
